These results are taken from patent US20130035326A1 (AMBIT BIOSCIENCES CORPORATION, priority 2009, published 2013).

The target in assay [1] is T1, KIT kinase (Homo sapiens, UniProt P10721).
T1 construct: made in house; host or cells: T7 phage display or HEK-293 cells
Briefly: Competition binding assay, KIT Kd. The essentials: (§1)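 Kd values derived from an eleven-point, threefold compound dilution series in a bead-based competition format: kinase (phage-fused or HEK-293-derived with DNA tag), ligand-coated streptavidin beads and compound equilibrated 1 h at room temperature. After washing, retained kinase was eluted with non-biotinylated ligand (0.5 μM) and measured by quantitative PCR.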

Assay [2] deals with T2, CSF-1R kinase (Homo sapiens, UniProt P07333).
T2 construct: made in house; host or cells: T7 phage display or HEK-293 cells
T2 sequence (P07333 20-972): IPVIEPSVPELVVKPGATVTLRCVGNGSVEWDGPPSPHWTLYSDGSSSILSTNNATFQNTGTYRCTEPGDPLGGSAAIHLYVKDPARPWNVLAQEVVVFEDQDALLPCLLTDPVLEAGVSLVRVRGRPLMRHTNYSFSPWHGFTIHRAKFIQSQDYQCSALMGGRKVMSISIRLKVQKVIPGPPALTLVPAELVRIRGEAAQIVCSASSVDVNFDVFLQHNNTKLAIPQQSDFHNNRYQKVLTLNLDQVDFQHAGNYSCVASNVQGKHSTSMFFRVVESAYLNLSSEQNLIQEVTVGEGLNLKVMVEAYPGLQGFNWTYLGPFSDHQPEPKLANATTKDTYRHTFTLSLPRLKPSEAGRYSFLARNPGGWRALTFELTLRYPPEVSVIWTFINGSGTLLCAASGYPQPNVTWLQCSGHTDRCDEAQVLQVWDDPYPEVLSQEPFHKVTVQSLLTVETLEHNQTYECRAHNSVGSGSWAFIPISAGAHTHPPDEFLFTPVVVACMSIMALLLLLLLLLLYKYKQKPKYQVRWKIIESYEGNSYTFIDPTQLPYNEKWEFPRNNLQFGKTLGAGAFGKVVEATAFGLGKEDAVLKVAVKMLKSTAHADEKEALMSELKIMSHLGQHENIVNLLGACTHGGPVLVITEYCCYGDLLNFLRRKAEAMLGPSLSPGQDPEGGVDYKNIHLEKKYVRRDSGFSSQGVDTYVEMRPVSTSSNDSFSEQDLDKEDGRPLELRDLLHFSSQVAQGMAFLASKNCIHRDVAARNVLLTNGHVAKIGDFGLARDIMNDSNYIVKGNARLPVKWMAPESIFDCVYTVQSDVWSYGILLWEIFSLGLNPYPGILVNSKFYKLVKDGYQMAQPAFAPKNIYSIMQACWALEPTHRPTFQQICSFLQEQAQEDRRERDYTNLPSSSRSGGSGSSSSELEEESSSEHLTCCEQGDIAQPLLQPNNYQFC
The assay is described as follows: Competition binding assay, CSF-1R Kd. The essentials:
as §1

Assay [3] concerns the target T3, FLT3 kinase (Homo sapiens, UniProt P36888).
T3 construct: made in house; host or cells: T7 phage display or HEK-293 cells
T3 sequence (P36888 27-993): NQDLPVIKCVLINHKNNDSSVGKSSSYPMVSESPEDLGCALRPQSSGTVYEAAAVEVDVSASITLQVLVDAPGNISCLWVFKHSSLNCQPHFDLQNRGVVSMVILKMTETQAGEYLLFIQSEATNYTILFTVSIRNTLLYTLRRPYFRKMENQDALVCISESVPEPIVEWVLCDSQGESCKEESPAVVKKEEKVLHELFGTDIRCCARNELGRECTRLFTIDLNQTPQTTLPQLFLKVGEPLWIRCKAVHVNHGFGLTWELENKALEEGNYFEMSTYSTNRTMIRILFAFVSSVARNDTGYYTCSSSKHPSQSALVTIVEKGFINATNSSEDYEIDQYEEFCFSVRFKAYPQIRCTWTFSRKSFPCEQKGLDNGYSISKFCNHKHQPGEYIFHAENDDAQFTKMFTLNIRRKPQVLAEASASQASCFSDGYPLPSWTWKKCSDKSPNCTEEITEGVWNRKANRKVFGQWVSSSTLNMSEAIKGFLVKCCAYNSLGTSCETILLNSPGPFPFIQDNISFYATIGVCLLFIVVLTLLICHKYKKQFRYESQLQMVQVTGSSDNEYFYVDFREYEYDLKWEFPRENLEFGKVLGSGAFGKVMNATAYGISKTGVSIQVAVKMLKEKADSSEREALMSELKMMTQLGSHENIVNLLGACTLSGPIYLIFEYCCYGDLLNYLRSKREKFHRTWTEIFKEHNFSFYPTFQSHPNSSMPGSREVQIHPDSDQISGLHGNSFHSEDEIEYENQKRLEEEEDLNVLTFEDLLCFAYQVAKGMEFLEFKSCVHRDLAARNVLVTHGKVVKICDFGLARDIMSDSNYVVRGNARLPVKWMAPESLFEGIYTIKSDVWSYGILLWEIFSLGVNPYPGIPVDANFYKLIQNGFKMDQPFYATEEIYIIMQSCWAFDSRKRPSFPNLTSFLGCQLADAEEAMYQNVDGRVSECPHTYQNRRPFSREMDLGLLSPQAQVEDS
The assay is described as follows: Competition binding assay, FLT3 Kd. In outline:
as §1

The test system of assay [4] is MV4-11 cells. The assay is described as follows: MV4-11 cell proliferation assay (Alamar Blue). The assay is classed as cell-based. The note with it: Homo sapiens, MV4-11, 72 h, 3 days incubation. The essentials:
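Flt3-ITD MV4-11 cells were serum-starved overnight in Iscove's with 0.5% FBS, then given compound at 9 half-log concentrations (0.5% DMSO) for 3 days at 37° C. Alamar Blue reduction was read after 3 h by fluorescence (560/590 nm). IC50 is the mean of duplicates versus negative control.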
On the technique in general: The colour change of resazurin is a common sign of viable cells or microbes.

Molecules are shown by their SMILES. A value given as a limit tells only on which side of the number the result lay.

T1 sequence (P10721 26-976): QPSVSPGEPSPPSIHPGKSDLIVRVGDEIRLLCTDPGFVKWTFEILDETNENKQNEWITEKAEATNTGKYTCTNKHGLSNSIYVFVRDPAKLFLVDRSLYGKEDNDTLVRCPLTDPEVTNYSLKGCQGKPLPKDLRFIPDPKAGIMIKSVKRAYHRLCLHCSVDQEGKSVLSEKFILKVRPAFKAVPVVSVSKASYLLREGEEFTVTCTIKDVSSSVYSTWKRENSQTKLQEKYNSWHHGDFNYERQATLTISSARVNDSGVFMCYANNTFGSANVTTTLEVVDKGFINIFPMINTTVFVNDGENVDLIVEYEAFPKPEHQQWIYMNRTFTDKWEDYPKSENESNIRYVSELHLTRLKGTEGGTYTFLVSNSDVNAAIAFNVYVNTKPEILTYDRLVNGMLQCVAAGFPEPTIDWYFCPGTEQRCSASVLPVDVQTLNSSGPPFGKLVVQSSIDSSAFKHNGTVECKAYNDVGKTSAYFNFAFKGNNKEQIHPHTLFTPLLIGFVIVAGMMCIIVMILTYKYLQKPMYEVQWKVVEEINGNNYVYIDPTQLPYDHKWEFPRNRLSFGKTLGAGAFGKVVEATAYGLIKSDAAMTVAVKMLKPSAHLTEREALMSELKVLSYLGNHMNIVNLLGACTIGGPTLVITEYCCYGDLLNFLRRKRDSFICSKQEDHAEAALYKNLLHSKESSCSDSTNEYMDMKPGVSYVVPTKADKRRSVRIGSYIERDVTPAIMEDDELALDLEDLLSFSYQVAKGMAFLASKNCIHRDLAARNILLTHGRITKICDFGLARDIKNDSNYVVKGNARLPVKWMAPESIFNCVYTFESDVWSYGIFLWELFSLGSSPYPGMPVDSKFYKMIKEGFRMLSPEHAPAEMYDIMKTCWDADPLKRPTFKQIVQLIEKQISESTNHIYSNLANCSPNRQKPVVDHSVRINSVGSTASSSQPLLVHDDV

Consider `CC(C)(C)c1cc(NC(=O)Cc2ccc(-c3ccc(N)nc3C(F)(F)F)cc2)no1.CS(=O)(=O)O` [Example 129, 5-(4-(2-(5-tert-butylisoxazol-3-ylamino)-2-oxoethyl)phenyl)-6-(trifluoromethybpyridin-2-aminium methanesulfonate], for which the values for the Kd in assay [1], in assay [2] and in assay [3] were 10 to 100 nM, > 500 nM and 10 to 100 nM, respectively. Moreover, the IC50 in assay [4] was in the range of 100 to 500 nM.

In the case of `CS(=O)(=O)O.Cc1cc(-c2ccc(CC(=O)Nc3cc(C4(C(F)(F)F)CC4)on3)cc2)cnc1N` [Example 130, 3-methyl-5-(4-(2-oxo-2-(5-(1-(trifluoromethybcyclopropybisoxazol-3-ylamino)ethyl)phenyl)pyridin-2-aminium methanesulfonate], the Kd in assay [1] was 1 to 10 nM; in assay [2], ≤ 10 nM; in assay [3] it was ≤ 1 nM. Further, the IC50 in assay [4] was ≤ 1 nM.

For the compound `Cn1cc(-c2cc(-c3ccc(CC(=O)Nc4cc(C(C)(C)C)on4)cc3)cnc2N)cn1` [Example 154], the equilibrium dissociation constant (Kd) was 1 to 10 nM in assay [1], 10 to 100 nM in assay [2] and ≤ 1 nM in assay [3]. This compound also displayed an IC50 in assay [4] of 1 to 10 nM.

Consider `CC(=O)OCC1(c2cc(NC(=O)Cc3ccc(-c4ccc(N)nc4)cc3)no2)CC1` [Example 169], for which the dissociation constant (Kd) was 1 to 10 nM in assay [1], ≤ 10 nM in assay [2] and ≤ 1 nM in assay [3]. Further, in assay [4], the IC50 is 10 to 100 nM.

As for `CC1(c2cc(NC(=O)Cc3ccc(-c4cnc(N)cc4F)cc3)no2)CC1` [Example 170], the Kd in assay [1] was 1 to 10 nM; in assay [2], ≤ 10 nM; in assay [3] it was ≤ 1 nM. The compound also had a concentration for half-maximal inhibition (IC50) in assay [4] of 1 to 10 nM.

With `CCC1(c2cc(NC(=O)Cc3ccc(-c4ccc(N)nc4)cc3)no2)CC1` [Example 171], the Kd in assay [1] was 1 to 10 nM; in assay [2], ≤ 10 nM; in assay [3], ≤ 1 nM. Also, the IC50 in assay [4] is ≤ 1 nM.

On to `CC1(c2cc(NC(=O)Cc3ccc(-c4cnc(N)cc4Cl)cc3)no2)CC1` [Example 172], for which the results for the Kd in assay [1], in assay [2] and in assay [3] were ≤ 1 nM, ≤ 10 nM and ≤ 1 nM, respectively. In addition, the IC50 in assay [4] lay within 1 to 10 nM.

For `CC(C)(C)c1cc(NC(=O)C(N)c2ccc(-c3ccc(N)nc3)cc2)no1` (centres unmarked) [Example 173], the dissociation constant Kd was 10 to 100 nM in assay [1], > 500 nM in assay [2] and 1 to 10 nM in assay [3]. In assay [4], this compound yielded an IC50 of 100 to 500 nM.

As for `Cc1nc(-c2ccc(CC(=O)Nc3cc(C(C)(C)C)on3)cc2)c(C)nc1N` [Example 174], the Kd is 1 to 10 nM in assay [1], 100 to 500 nM in assay [2] and ≤ 1 nM in assay [3]. Moreover, the IC50 in assay [4] is 10 to 100 nM.

For `CC(C)(C)Sc1cc(-c2ccc(CC(=O)Nc3cc(C(C)(C)C)on3)cc2)cnc1N` [Example 175], the equilibrium dissociation constant (Kd) in assay [1] lay within 10 to 100 nM; in assay [2], 100 to 500 nM; in assay [3] it was 1 to 10 nM. In addition, in assay [4], the concentration for half-maximal inhibition (IC50) lay in the range of 10 to 100 nM.

Turning to `CC(C)(C)c1cc(NC(=O)Cc2ccc(-c3cnc(N)c(S(=O)(=O)C(C)(C)C)c3)cc2)no1` [Example 176], the Kd in assay [1] was 1 to 10 nM; in assay [2], > 500 nM; in assay [3], ≤ 1 nM. The compound further gave an IC50 in assay [4] of 10 to 100 nM.

As to `CC1(c2cc(NC(=O)Cc3ccc(-c4cc(F)c(N)nc4F)cc3)no2)CC1` [Example 177], the Kd in assay [1] is 1 to 10 nM; in assay [2], ≤ 10 nM; in assay [3] it was ≤ 1 nM. Also, the half-maximal inhibitory concentration (IC50) in assay [4] was ≤ 1 nM.

`CC(C)(C)c1cc(NC(=O)C(F)(F)c2ccc(-c3ccc(N)nc3)cc2)no1` [Example 178]: the Kd in assay [1] is 1 to 10 nM; in assay [2] it was ≤ 10 nM; in assay [3], ≤ 1 nM. Further, the 50% inhibitory concentration (IC50) in assay [4] lay in the range of 1 to 10 nM.

Consider `CC(C)(C)c1cc(NC(=O)Cc2ccc(-c3cnc(N)c([S+]([O-])C(C)(C)C)c3)cc2)no1` (centres unmarked) [Example 179], for which the Kd in assay [1] was 1 to 10 nM; in assay [2], 100 to 500 nM; in assay [3], ≤ 1 nM. The IC50 in assay [4] is 1 to 10 nM.

The Kd is the concentration at which binding is half-saturated. Read a high Kd as a looser complex. What is called IC50 is the concentration at which inhibition is half-maximal. High values mean weaker potency, low ones greater potency.
